Results from PubChem BioAssay (NCI).
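Values below derive from 48-hour exposures of cells grown in 96-well plates, with endpoints linearly interpolated between the two concentrations bracketing the appropriate inhibition level. TGI: concentration producing complete growth inhibition.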

Assays:
Assay in all cases: NCI tumour cell line growth inhibition, 48 h
A498 renal = system: A498 renal
A549 NSCLC = system: A549 NSCLC
BT-549 breast = system: BT-549 breast
HCT-116 colon = system: HCT-116 colon
IGROV1 ovarian = system: IGROV1 ovarian
K-562 leukemia = system: K-562 leukemia
KM12 colon = system: KM12 colon
MCF7 breast = system: MCF7 breast
MDA-N = system: MDA-N
MOLT-4 leukemia = system: MOLT-4 leukemia
NCI-H460 lung = system: NCI-H460 lung
NCI-H522 lung = system: NCI-H522 lung
NCI/ADR-RES ovarian = system: NCI/ADR-RES ovarian
SF-268 CNS = system: SF-268 CNS
SF-539 CNS = system: SF-539 CNS
SNB-75 CNS = system: SNB-75 CNS
U251 CNS = system: U251 CNS

Measured: TGI

CC(C)OP(=O)(OC(C)C)C(C(C)C)N(C)C(N)=NC#N (configuration not stated)
> 100 µM: A498 renal | A549 NSCLC | BT-549 breast | HCT-116 colon | IGROV1 ovarian | K-562 leukemia | KM12 colon | MCF7 breast | MDA-N | MOLT-4 leukemia | NCI-H460 lung | NCI-H522 lung | NCI/ADR-RES ovarian | SF-268 CNS | SF-539 CNS | SNB-75 CNS | U251 CNS
